Assay: xn = mol fraction of the nth substance listed
Details: 101 kPa, Liquid, Taylor dispersion method, x1 = 0

Structure (SMILES)	binary diffusion coefficient (298.2 K) [m2/s]	binary diffusion coefficient (303.2 K) [m2/s]	binary diffusion coefficient (313.2 K) [m2/s]	binary diffusion coefficient (323.2 K) [m2/s]	binary diffusion coefficient (333.2 K) [m2/s]
NCCC(=O)O [3-aminopropanoic acid] + O	9.37e-10	1.06e-09	1.35e-09	1.64e-09	1.97e-09
NCCCC(=O)O [4-aminobutanoic acid] + O	8.38e-10	9.54e-10	1.2e-09	1.49e-09	1.79e-09
NCCCCC(=O)O [5-aminovaleric acid] + O	7.76e-10	8.73e-10	1.12e-09	1.39e-09	1.66e-09
NCCCCCC(=O)O [6-aminohexanoic acid] + O	7.28e-10	8.25e-10	1.05e-09	1.29e-09	1.57e-09
NCCCCCCC(=O)O [7-aminoheptanoic acid] + O	6.88e-10	7.86e-10	1e-09	1.23e-09	1.48e-09

— the NIST ThermoML archive (doi:10.1021/je301370s)
